Assay results from patent publication US20260146035A1, “FUSED BICYCLIC COMPOUNDS AND THEIR USE AS MER AND AXL INHIBITORS” (DONG-A ST CO., LTD., priority 2022, published 2026).

How the values were obtained:
human AXL (473-end) = biological target: T1, human AXL (473-end) (Homo sapiens, UniProt P30530); experiment: HTRF kinase activity biochemical assay, AXL; conditions: 10 μM ATP, 30 minutes pre-incubation
T1 construct: human AXL (473-end); purchased SignalChem, Canada
T1 sequence (P30530 473-894 limits assumed): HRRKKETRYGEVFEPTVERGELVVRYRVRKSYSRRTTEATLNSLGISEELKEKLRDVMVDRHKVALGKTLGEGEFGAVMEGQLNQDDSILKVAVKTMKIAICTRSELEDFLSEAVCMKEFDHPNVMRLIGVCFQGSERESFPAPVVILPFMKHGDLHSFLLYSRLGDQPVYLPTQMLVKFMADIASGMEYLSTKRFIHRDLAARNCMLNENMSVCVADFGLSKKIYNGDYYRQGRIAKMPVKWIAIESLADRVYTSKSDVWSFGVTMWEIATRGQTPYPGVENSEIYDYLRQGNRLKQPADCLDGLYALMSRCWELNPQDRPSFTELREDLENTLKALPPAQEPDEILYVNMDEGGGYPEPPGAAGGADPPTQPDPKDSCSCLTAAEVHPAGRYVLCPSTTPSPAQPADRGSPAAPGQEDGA

human TYRO3 (455-end) = biological target: T2, human TYRO3 (455-end) (Homo sapiens, UniProt Q06418); experiment: HTRF kinase activity biochemical assay, TYRO3; conditions: 10 μM ATP, 30 minutes pre-incubation; read-out: HTRF TYRO IC50
T2 construct: TYRO3 (455-end); purchased SignalChem, Canada
T2 sequence (Q06418 455-890 limits assumed): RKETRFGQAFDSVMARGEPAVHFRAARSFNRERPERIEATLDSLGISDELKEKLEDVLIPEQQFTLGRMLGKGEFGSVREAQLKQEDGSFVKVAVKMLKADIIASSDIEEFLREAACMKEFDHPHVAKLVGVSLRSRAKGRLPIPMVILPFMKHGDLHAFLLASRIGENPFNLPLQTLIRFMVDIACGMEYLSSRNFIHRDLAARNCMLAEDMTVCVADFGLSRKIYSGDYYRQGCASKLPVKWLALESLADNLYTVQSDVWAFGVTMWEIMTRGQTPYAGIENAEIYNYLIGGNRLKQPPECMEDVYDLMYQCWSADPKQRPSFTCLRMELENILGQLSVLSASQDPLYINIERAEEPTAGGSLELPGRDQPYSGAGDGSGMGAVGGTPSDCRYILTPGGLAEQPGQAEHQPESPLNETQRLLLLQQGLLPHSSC

human MER (528-end) = biological target: T3, human MER (528-end) (Homo sapiens, UniProt Q12866); experiment: HTRF kinase activity biochemical assay, MER; conditions: 10 μM ATP, 30 minutes pre-incubation; read-out: HTRF MERTK IC50
T3 construct: human MER (528-end); purchased Camnabio, Japan
T3 sequence (Q12866 528-999 limits assumed): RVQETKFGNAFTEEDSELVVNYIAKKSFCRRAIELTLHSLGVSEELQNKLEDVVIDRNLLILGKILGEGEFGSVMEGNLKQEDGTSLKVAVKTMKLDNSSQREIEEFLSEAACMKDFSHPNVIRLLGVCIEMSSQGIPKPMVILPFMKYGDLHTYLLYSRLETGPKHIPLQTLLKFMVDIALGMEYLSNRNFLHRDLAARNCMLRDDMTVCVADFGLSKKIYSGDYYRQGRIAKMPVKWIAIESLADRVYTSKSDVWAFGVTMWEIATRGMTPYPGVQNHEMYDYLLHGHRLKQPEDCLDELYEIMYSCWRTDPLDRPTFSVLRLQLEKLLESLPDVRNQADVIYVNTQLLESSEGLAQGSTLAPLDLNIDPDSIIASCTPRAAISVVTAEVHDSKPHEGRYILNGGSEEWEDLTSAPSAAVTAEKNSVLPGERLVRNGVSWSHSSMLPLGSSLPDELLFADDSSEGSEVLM

Structure (SMILES): Cn1cc(-c2cnc(N)c(C(=O)N[C@H]3CCC[C@@H]3OCc3ccc(-c4ccc5c(c4)C(C)(C)CCN5C4CCN(CCO)CC4)cc3)c2)cn1 [Example 114, 2-amino-N-{(1S,2S)-2-[(4-{1-[1-(2-hydroxyethyl)piperidin-4-yl]-4,4-dimethyl-1,2,3,4-tetrahydroquinolin-6-yl}phenyl)methoxy]cyclopentyl}-5-(1-methyl-1H-pyrazol-4-yl)pyridine-3-carboxamide]
- IC50 (human AXL (473-end)): < 10 nM
- IC50 (human TYRO3 (455-end)): 10 to 100 nM
- IC50 (human MER (528-end)): < 10 nM

Structure (SMILES): Cc1cc2cc(-c3ccc(CO[C@H]4CCC[C@@H]4NC(=O)c4cc(-c5cnn(C)c5)cnc4N)cc3)ccc2[nH]1 [Example 56, 2-amino-N-[(1S,2S)-2-{[4-(2-methyl-1H-indol-5-yl)phenyl]methoxy}cyclopentyl]-5-(1-methyl-1H-pyrazol-4-yl)pyridine-3-carboxamide]
- IC50 (human AXL (473-end)): 10 to 100 nM
- IC50 (human TYRO3 (455-end)): > 1000 nM
- IC50 (human MER (528-end)): 10 to 100 nM

Structure (SMILES): Cn1ccc(-c2cnc(N)c(C(=O)N[C@H]3CCC[C@@H]3OCc3ccc(-c4ccc5c(c4)CC[C@@H]5N4CCN(CCO)CC4)cc3)c2)cc1=O [Example 92, 6-amino-N-{(1S,2S)-2-[(4-{(1S)-1-[4-(2-hydroxyethyl)piperazin-1-yl]-2,3-dihydro-1H-inden-5-yl}phenyl)methoxy]cyclopentyl}-1′-methyl-2′-oxo-1′,2′-dihydro[3,4′-bipyridine]-5-carboxamide]
- IC50 (human AXL (473-end)): < 10 nM
- IC50 (human TYRO3 (455-end)): 10 to 100 nM
- IC50 (human MER (528-end)): < 10 nM

Structure (SMILES): Cn1cc(-c2cnc(N)c(C(=O)N[C@H]3CCC[C@@H]3OCc3ccc(-c4ccc5c(ccn5C(F)F)c4)cc3)c2)cn1 [Example 64, 2-amino-N-[(1S,2S)-2-({4-[1-(difluoromethyl)-1H-indol-5-yl]phenyl}methoxy)cyclopentyl]-5-(1-methyl-1H-pyrazol-4-yl)pyridine-3-carboxamide]
- IC50 (human AXL (473-end)): 10 to 100 nM
- IC50 (human TYRO3 (455-end)): > 1000 nM
- IC50 (human MER (528-end)): < 10 nM

Structure (SMILES): Cn1ccc(-c2cc(C(=O)N[C@H]3CCC[C@@H]3OCc3ccc(-c4ccc5c(c4)CC(F)(F)C5N4CCN(CCO)CC4)cc3)cnc2N)cc1=O (stereo partly drawn) [Example 87, amino-N-{(1S,2S)-2-[(4-{2,2-difluoro-1-[4-(2-hydroxyethyl)piperazin-1-yl]-2,3-dihydro-1H-inden-5-yl}phenyl)methoxy]cyclopentyl}-1′-methyl-2′-oxo-1′,2′-dihydro[3,4′-bipyridine]-5-carboxamide]
- IC50 (human AXL (473-end)): < 10 nM
- IC50 (human TYRO3 (455-end)): 100 to 1000 nM
- IC50 (human MER (528-end)): < 10 nM

Structure (SMILES): Nc1ncc(-c2ccc(F)nc2)cc1C(=O)N[C@H]1CCC[C@@H]1OCc1ccc(-c2ccc3c(c2)C2(CC2)CN(C2CCN(CCO)CC2)C3)cc1 [Example 75, 6-amino-6′-fluoro-N-{(1S,2S)-2-[(4-{2′-[1-(2-hydroxyethyl)piperidin-4-yl]-2′,3′-dihydro-1′H-spiro[cyclopropane-1,4′-isoquinolin]-6′-yl}phenyl)methoxy]cyclopentyl}[3,3′-bipyridine]-5-carboxamide]
- IC50 (human AXL (473-end)): > 1000 nM
- IC50 (human TYRO3 (455-end)): > 1000 nM
- IC50 (human MER (528-end)): > 1000 nM

Structure (SMILES): Nc1ncc(C(F)(F)F)cc1C(=O)N[C@H]1CCC[C@@H]1OCc1ccc(-c2ccc3c(c2)CCCC3N2CCN(CCO)CC2)cc1 (stereo partly drawn) [Example 124, 2-amino-N-{(1S,2S)-2-[(4-{5-[4-(2-hydroxyethyl)piperazin-1-yl]-5,6,7,8-tetrahydronaphthalen-2-yl}phenyl)methoxy]cyclopentyl}-5-(trifluoromethyl)pyridine-3-carboxamide]
- IC50 (human AXL (473-end)): < 10 nM
- IC50 (human TYRO3 (455-end)): 100 to 1000 nM
- IC50 (human MER (528-end)): < 10 nM

Structure (SMILES): Cn1ccc(-c2cnc(N)c(C(=O)N[C@H]3CCC[C@@H]3OCc3ccc(-c4ccc5c(c4)CC[C@@H]5N4CCN(CC(O)CO)CC4)cc3)c2)cc1=O (stereo partly drawn) [Example 99, 6-amino-N-{(1S,2S)-2-[(4-{(1S)-1-[4-(2,3-dihydroxypropyl)piperazin-1-yl]-2,3-dihydro-1H-inden-5-yl}phenyl)methoxy]cyclopentyl}-1′-methyl-2′-oxo-1′,2′-dihydro[3,4′-bipyridine]-5-carboxamide]
- IC50 (human AXL (473-end)): < 10 nM
- IC50 (human TYRO3 (455-end)): 100 to 1000 nM
- IC50 (human MER (528-end)): < 10 nM

Structure (SMILES): Cn1cc(-c2cnc(N)c(C(=O)N[C@H]3CCC[C@@H]3OCc3ccc(-c4ccc5c(c4)CCCN5C4CCN(CCO)CC4)cc3)c2)cn1 [Example 112, 2-amino-N-{(1S,2S)-2-[(4-{1-[1-(2-hydroxyethyl)piperidin-4-yl]-1,2,3,4-tetrahydroquinolin-6-yl}phenyl)methoxy]cyclopentyl}-5-(1-methyl-1H-pyrazol-4-yl)pyridine-3-carboxamide]
- IC50 (human AXL (473-end)): < 10 nM
- IC50 (human TYRO3 (455-end)): 10 to 100 nM
- IC50 (human MER (528-end)): < 10 nM

Structure (SMILES): CC1(C)CN(C2CCN(CCO)CC2)c2ccc(-c3ccc(CO[C@H]4COC[C@@H]4NC(=O)c4cc(-c5cccnc5F)cnc4N)cc3)cc21 [Example 49, 6-amino-2′-fluoro-N-{(3S,4R)-4-[(4-{1-[1-(2-hydroxyethyl)piperidin-4-yl]-3,3-dimethyl-2,3-dihydro-1H-indol-5-yl}phenyl)methoxy]oxolan-3-yl}[3,3′-bipyridine]-5-carboxamide]
- IC50 (human AXL (473-end)): < 10 nM
- IC50 (human TYRO3 (455-end)): 100 to 1000 nM
- IC50 (human MER (528-end)): < 10 nM

Structure (SMILES): Cn1cc(-c2cnc(N)c(C(=O)N[C@H]3CCC[C@@H]3OCc3ccc(-c4ccc5c(c4)C(C)(C)CN5C4CCN(CCO)CC4)cc3)c2)ccc1=O [Example 36, 6-amino-N-{(1S,2S)-2-[(4-{1-[1-(2-hydroxyethyl)piperidin-4-yl]-3,3-dimethyl-2,3-dihydro-1H-indol-5-yl}phenyl)methoxy]cyclopentyl}-1′-methyl-6′-oxo-1′,6′-dihydro[3,3′-bipyridine]-5-carboxamide]
- IC50 (human AXL (473-end)): < 10 nM
- IC50 (human TYRO3 (455-end)): 10 to 100 nM
- IC50 (human MER (528-end)): < 10 nM

Structure (SMILES): Cn1cc(-c2cnc(N)c(C(=O)N[C@H]3CCC[C@@H]3OCc3ccc(-c4ccc5c(c4)C(C)(C)CCC5N4CCN(CCO)CC4)cc3)c2)cn1 (stereo partly drawn) [Example 148, 2-amino-N-{(1S,2S)-2-[(4-{5-[4-(2-hydroxyethyl)piperazin-1-yl]-8,8-dimethyl-5,6,7,8-tetrahydronaphthalen-2-yl}phenyl)methoxy]cyclopentyl}-5-(1-methyl-1H-pyrazol-4-yl)pyridine-3-carboxamide]
- IC50 (human AXL (473-end)): < 10 nM
- IC50 (human TYRO3 (455-end)): 10 to 100 nM
- IC50 (human MER (528-end)): < 10 nM

Structure (SMILES): Cc1nn(C)cc1-c1cnc(N)c(C(=O)N[C@H]2COC[C@@H]2OCc2ccc(-c3ccc4c(c3)C(C)(C)CN4C3CCN(CCO)CC3)cc2)c1 [Example 42, 2-amino-5-(1,3-dimethyl-1H-pyrazol-4-yl)-N-{(3S,4R)-4-[(4-{1-[1-(2-hydroxyethyl)piperidin-4-yl]-3,3-dimethyl-2,3-dihydro-1H-indol-5-yl}phenyl)methoxy]oxolan-3-yl}pyridine-3-carboxamide]
- IC50 (human AXL (473-end)): < 10 nM
- IC50 (human TYRO3 (455-end)): 10 to 100 nM
- IC50 (human MER (528-end)): < 10 nM

Structure (SMILES): Cn1cc(-c2cnc(N)c(C(=O)N[C@H]3CCC[C@@H]3OCc3ccc(-c4ccc5c(c4)OCCC5N4CCN(CCO)CC4)cc3)c2)cn1 (stereo partly drawn) [Example 121, 2-amino-N-{(1S,2S)-2-[(4-{4-[4-(2-hydroxyethyl)piperazin-1-yl]-3,4-dihydro-2H-1-benzopyran-7-yl}phenyl)methoxy]cyclopentyl}-5-(1-methyl-1H-pyrazol-4-yl)pyridine-3-carboxamide]
- IC50 (human AXL (473-end)): < 10 nM
- IC50 (human TYRO3 (455-end)): 10 to 100 nM
- IC50 (human MER (528-end)): < 10 nM
